Test results as given in patent US20250120944A1, “ANTIBACTERIAL COMPOSITION” (SEOUL NATIONAL UNIVERSITY R&DB FOUNDATION, priority 2021, published 2025).

What was measured:
[1] = system: LC3; assay: immunoblotting of LC3 in S. typhimurium-infected J774A.1 cells treated with a lysosomal V-ATPase inhibitor; type: cell-based; settings: 100 nM, 4 hours
Experimental: (§1) First, J774A.1 macrophages (Korean Cell Line Bank) were cultured in RPMI (Rosewell Park Memorial Institue) supplemented with 10% FBS and 100 units/mL penicillin/streptomycin, and HeLa cells were cultured in Dulbecco's Modified Eagle's Medium (DMEM; Gibco, 10566016) supplemented with 10% FBS and 100 units/mL penicillin/streptomycin. All cell lines were tested negative for mycoplasma using the MycoAlert detection kit (Lonza, LT07-118), and all culture plates and cell lines were maintained in a humidified incubator at 37° C. and 5% CO2.
Macrophage J774A.1 and HeLa cells were infected with Salmonella typhimurium, a Gram-negative bacterium, and the expression of LC3 was monitored through immunoblotting. Mouse monoclonal anti-[…] (Abcam, ab56416, 1: 100,000) was used for immunoblotting, rabbit polyclonal anti-LC3 (Sigma, L7543, 1:40,000) was used for immunoblotting, and anti-rabbit IgG-HRP (Cell Signaling, 7074, 1:10,000) and anti-mouse IgG-HRP (Cell Signaling, 7076, 1:1000) were used as secondary antibodies.
The J774A.1 cells of Experimental Example 1-1 were treated with bafilomycin A1 (100 nM), an inhibitor of lysosomal V-ATPase, for 4 hours, and immunoblotting was performed in the same manner as in Experimental Example 1-1. However, there was no difference in the degree of inhibition of LC3-I and LC-II expression even when treated with lysosomal V-ATPase inhibitor (FIG. 1E).

[2] = system: LC3; assay: immunoblotting of LC3 in J774A.1 and HeLa cells treated with LPS; type: cell-based; settings: 100 ng/mL, 6 hours
Experimental: as §1
[…] Mouse monoclonal anti-β62 (Abcam, ab56416, 1: 100,000) was used for immunoblotting, rabbit polyclonal anti-LC3 (Sigma, L7543, 1:40,000) was used for immunoblotting, and anti-rabbit IgG-HRP (Cell Signaling, 7074, 1:10,000) and anti-mouse IgG-HRP (Cell Signaling, 7076, 1:1000) were used as secondary antibodies.
In addition, in order to rule out the possibility that J774A.1 and HeLa cells lack the ability to induce autophagy in response to pathogen invasion, the J774A.1 and HeLa cells of Experimental Example 1-1 were treated with lipopolysaccharide (LPS) (100 ng/mL), a component of the outer membrane of Gram-negative bacteria, as a pathogen-associated molecular pattern (PAMP) for 6 hours, and immunoblotting was performed in the same manner as in Experimental Example 1-1.

Compound | degree of inhibition of LC3-I and LC-II expression [1] | lipidation of LC3 (LC3-II) [2] | synthesis of LC3 (LC3-I) [2]
CO/C1=C\C(C)=C\[C@@H](C)[C@@H](O)[C@@H](C)C/C(C)=C/C=C/[C@H](OC)[C@@H]([C@@H](C)[C@@H](O)[C@H](C)[C@@]2(O)C[C@@H](O)[C@H](C)[C@@H](C(C)C)O2)OC1=O [bafilomycin A1] | no difference |  | 
lipopolysaccharide [LPS] |  | strongly induced | strongly induced
